Measurements from PMC10046901, “Molecular Analysis of the Superior Efficacy of a Dual Epidermal Growth Factor Receptor (EGFR)-DNA-Targeting Combi-Molecule in Comparison with Its Putative Prodrugs 6-Mono-Alkylamino- and 6,6-Dialkylaminoquinazoline in a Human Osteosarcoma Xenograft Model” (Cells, 2023).
Entries after “also recorded” stand apart in the source; their conditions may differ.

Experiments:
KHOS/NP = test: cells; assay type: cell-based; conditions: Homo sapiens, 120 h, read-out: IC50 growth inhibition
MNNG/HOS = test: cells; assay type: cell-based; conditions: 120 h, read-out: IC50 growth inhibition
[1] = tested on: Saos-2 osteosarcoma xenograft; test: Saos-2 xenograft tumor growth (caliper, CT); assay type: in vivo, NSG male mice; conditions: 80 mg/kg oral gavage every other day for 20 days; end of treatment
Experimental: Animal experiments were executed in accordance with a protocol approved by the McGill Institutional Animal Care Committee (McGill University Health Centre Research Institute and McGill University, Montreal, Canada). Xenografts of the tumors were obtained via unilateral and subcutaneous injection (5 × 10^6 cells in 100 µL of a PBS1x solution) into immunodeficient NSG male mice (N = 28; 8 weeks old; weight = 30 g; Charles River, Canada). The mice were maintained at optimal temperature (24 °C) and relative humidity (50%) on a 12/12-light/dark cycle with free access to water and food. The mice were monitored clinically every day; body weights were recorded and tumor volumes were measured with a caliper using the formula 4/3 π (length/2) (width/2)^2 every other day. Once tumors reached 68 mm^3, the mice were randomly divided into 4 groups: 1 was treated with ZR2002 (N = 7), another was treated with JS84 (N = 7), another was treated with JS61 (N = 7) and the last was treated with a vehicle (N = 7). […]
All PET/CT experiments were performed using nanoScan PET/CT for small animals (Mediso Medical Imaging Systems, Budapest, Hungary). […] The mice were kept awake for 45 min before the scans and weighed, and glycemia was measured in blood drawn from the caudal artery. […] Temperature and heart rate were monitored throughout the procedure using the Mediso system. […] The CT volume-of-interest (VOI) was drawn manually on the CT and PET co-registered images. ^18F-FDG accumulation was quantified as the mean standardized uptake value (SUV) between 20 and 30 min post-injection in a 3D volume-of-interest (VOI), which was named the metabolic volume (MV), delineated semi-automatically with iso-contours at a 40% threshold of the maximal SUV [30] in the tumor on PET/CT fusion slices using the PMOD software package v3.6 (PMOD Technologies Ltd., Zürich, Switzerland). In addition, another tumor volume-based parameter, called total lesion glycolysis (TLG), was calculated according to the product between the MV and the mean SUV. […]

[2] = Body weight / tolerance in xenografted mice; assay type: in vivo, NSG male mice; conditions: 80 mg/kg oral gavage every other day, 10 doses
Experimental: Animal experiments were executed in accordance with a protocol approved by the McGill Institutional Animal Care Committee (McGill University Health Centre Research Institute and McGill University, Montreal, Canada). Xenografts of the tumors were obtained via unilateral and subcutaneous injection (5 × 10^6 cells in 100 µL of a PBS1x solution) into immunodeficient NSG male mice (N = 28; 8 weeks old; weight = 30 g; Charles River, Canada). The mice were maintained at optimal temperature (24 °C) and relative humidity (50%) on a 12/12-light/dark cycle with free access to water and food. The mice were monitored clinically every day; body weights were recorded and tumor volumes were measured with a caliper using the formula 4/3 π (length/2) (width/2)^2 every other day. Once tumors reached 68 mm^3, the mice were randomly divided into 4 groups: 1 was treated with ZR2002 (N = 7), another was treated with JS84 (N = 7), another was treated with JS61 (N = 7) and the last was treated with a vehicle (N = 7). The mice were treated every other day for 20 days, receiving a total of 10 doses via oral gavage of 200 µL of a ZR2002, JS61 or JS84 solution at a dose of 80 mg/kg body weight or the vehicle (control group). The drugs were dissolved in a solution of 25% of alcohol (Greenfield, Toronto, ON, Canada), 25% of Cremophor (Sigma-Aldrich, St. Louis, MO, USA) and 50% of 0.9% NaCl (Sigma-Aldrich, St. Louis, MO, USA). The vehicle solution used the same mixture without any drug.

ɣ-H2AX phosphorylation = test: P-H2AX in tumor tissue (immunohistochemistry, Western blot); assay type: in vivo, human; conditions: tumors 3 h after last dose, 80 mg/kg, N = 4
Experimental: In order to study the drug pharmacokinetics, 1 last dose (the 11th dose) was administered 3 h prior to sacrifice and after a break of 5 days from the previous drug administration.
At the end of the study, the mice were sacrificed, and the plasma and tumors were collected. The plasma was stored at −80 °C, and the tumor tissues were transversely cut into 2 parts: 1 was immediately frozen in liquid nitrogen and stored at −80 °C for Western blots and LC-MS analysis; the other was fixed in 4% paraformaldehyde and used for histology.
The tumors were fixed for 36 h in 4% paraformaldehyde, transferred to 70% EtOH and paraffin-embedded. Sections 4 µm thick were deparaffinized, rehydrated and incubated for 20 min at 37 °C with anti-P-EGFR (1–100, ab40815, Abcam, Cambridge, UK) or anti-P-H2AX (1–100, sc-517348, Santa Cruz Biotechnology, Dallas, TX, USA), followed by secondary Ab incubation with OmniMap anti-Rb HRP (760–4311, Roche, Basel, Switzerland) at room temperature for 16 min, followed by the detection kit ChromoMap Kit (760–4304, Roche, Basel, Switzerland), and the slides were then counterstained with hematoxylin, dehydrated, cleared and cover-slipped. The slides were digitally scanned using an Aperio scanner scope XT.
The tumor tissue samples were smashed with liquid nitrogen into a mortar, and the tumor powders were transferred to cold RIPA 1x buffer with an anti-protease and anti-phosphatase inhibitor cocktail (Roche, Basel, Switzerland) in ice for 1 h and sonicated. After centrifugation, the proteins were quantified and mixed in Laemmli buffer (Sigma-Aldrich, St. Louis, MO, USA), maintaining the same concentration.
Cell lysates or tissue lysates were loaded onto 4–20% SDS-PAGE gels (mini-protean TGx stain-free, Bio-Rad, Hercules, CA, USA) and transferred to PVDF membranes that were pre-wetted with methanol. […] The quantification of the immunoblots was performed on digitalized images using ImageLab Software 6.1 (Bio-Rad, Hercules, CA, USA). […]

[3] = tested on: panel of osteosarcoma cells (U2-OS, Saos-2, MG-63, MNNG/HOS, KHOS/NP); test: Growth inhibition assay across panel of osteosarcoma cell lines; assay type: cell-based; conditions: for IC50: range over five osteosarcoma cell lines
MG-63 = test: cells; assay type: cell-based; conditions: Homo sapiens, MG-63, 120 h, read-out: IC50 growth inhibition

With `ClCCN(CCCl)c1ccc2ncnc(Nc3cccc(Br)c3)c2c1` [JS61] the IC50 (KHOS/NP) was 6.83 ± 0.5 µM, the IC50 (MNNG/HOS) was 5.86 ± 0.15 µM and the “tumor size / growth inhibition vs vehicle (caliper and CT scan)” value [1] was “no significant growth inhibition”. The “tolerance / body weight throughout treatment” value [2] was “no significant weight loss”, the “ɣ-H2AX phosphorylation in tumors vs control” value (ɣ-H2AX phosphorylation) was “low levels of H2AX phosphorylation” and the IC50 [3] was 1.39 to 12.5 µM. The IC50 (MG-63) was 12.5 ± 0.61 µM.
For `ClCCNc1ccc2ncnc(Nc3cccc(Br)c3)c2c1` [ZR2002], the IC50 (KHOS/NP) was 0.19 ± 0.03 µM, the IC50 (MNNG/HOS) was 0.31 ± 0.09 µM and the “tumor size / growth inhibition vs vehicle (caliper and CT scan)” value [1] was “significantly reduced”. For the same molecule, the “tolerance / body weight throughout treatment” value [2] was “no significant weight loss”, the “ɣ-H2AX phosphorylation in tumors vs control” value (ɣ-H2AX phosphorylation) was “enhanced in comparison with the control, even if it was not statistically significant” and the IC50 [3] was 0.08 to 0.45 µM. The “fold more potent than JS61” value ([3]; ratio of IC50 values across the panel) was 17–36 fold and the IC50 (MG-63) was 0.45 ± 0.08 µM.
With `CN(CCCl)c1ccc2ncnc(Nc3cccc(Br)c3)c2c1` [JS84] the IC50 (KHOS/NP) was 1.38 ± 0.3 µM, the IC50 (MNNG/HOS) was 0.88 ± 0.43 µM and the “tumor size / growth inhibition vs vehicle (caliper and CT scan)” value [1] was “no significant growth inhibition; also recorded: minor antitumor activity”. The “tolerance / body weight throughout treatment” value [2] was “no significant weight loss”, the “ɣ-H2AX phosphorylation in tumors vs control” value (ɣ-H2AX phosphorylation) was “low levels of H2AX phosphorylation” and the IC50 [3] was 0.18 to 5.04 µM. For the same molecule, the IC50 (MG-63) was 5.04 ± 0.98 µM.
